From DBAASP
≈ marks a conversion by molar mass, not a printed value. One block for each compound: values may come before it.

Assays:
Test in all cases: ≥ marks a high value that may be exact or a test limit, other limits are often not marked, values filed in µg/mL are converted to µM
[1] = tested on: Escherichia coli K91BK
[2] = tested on: Bacillus anthracis Sterne 34F2
[3] = tested on: Bacillus subtilis var. niger ATCC 9372
[4] = tested on: Mannheimia haemolytica Serovar 1
[5] = tested on: Klebsiella pneumoniae
[6] = tested on: Aspergillus fumigatus
[7] = tested on: Pasteurella multocida
[8] = tested on: Pseudomonas aeruginosa PAO1
[9] = tested on: Salmonella enterica subsp. arizonae
[10] = tested on: Bibersteinia trehalosi
[11] = tested on: Staphylococcus aureus
[12] = tested on: Mannheimia haemolytica Serovar 2
[13] = tested on: Mannheimia haemolytica Serovar 6
[14] = tested on: Corynebacterium pseudotuberculosis ATCC 19410
[15] = tested on: Streptococcus sanguinis NY101
[16] = tested on: Pseudomonas aeruginosa PAK
[17] = tested on: Streptococcus sobrinus ATCC 33478
[18] = tested on: Streptococcus gordonii Challis DL1
[19] = tested on: Streptococcus mitis ATCC 903
[20] = tested on: Streptococcus mutans UA159
[21] = tested on: Enterococcus faecalis
[22] = tested on: Escherichia coli W3110
[23] = tested on: Escherichia coli BCRC 10675
[24] = tested on: Staphylococcus aureus BCRC 10781
[25] = tested on: Staphylococcus aureus BCRC 10780
[26] = tested on: Streptococcus iniae
[27] = tested on: Vibrio parahaemolyticus BCRC 10806
[28] = tested on: Vibrio parahaemolyticus
[29] = tested on: Vibrio alginolyticus BCRC 12829
[30] = tested on: Vibrio anguillarum serotype O1
[31] = tested on: Enterobacter cloacae BCRC 10401
[32] = tested on: Vibrio alginolyticus
[33] = tested on: Lactococcus garvieae
[34] = tested on: Streptococcus equinus BCRC 14729
[35] = tested on: Yersinia enterocolitica BCRC 13999
[36] = tested on: Listeria monocytogenes BCRC 14845
[37] = tested on: Klebsiella oxytoca BCRC 13985
[38] = tested on: Klebsiella aerogenes BCRC 10370
[39] = tested on: Staphylococcus xylosus BCRC 12930
[40] = tested on: Pseudomonas aeruginosa BCRC 10944
[41] = tested on: Vibrio harveyi

Compound: CC[C@H](C)[C@H](NC(=O)[C@H](CC(N)=O)NC(=O)[C@H](CCCCN)NC(C)=O)C(=O)N[C@@H](CCCN=C(N)N)C(=O)N[C@@H](CCCN=C(N)N)C(=O)N[C@H](C(=O)N[C@H](C(=O)N[C@@H](CCCN=C(N)N)C(=O)N[C@@H](CCCCN)C(=O)N[C@H](C(=O)N[C@H](C(=O)N[C@@H](Cc1cnc[nH]1)C(=O)N[C@H](C(=O)N[C@H](C(=O)N[C@@H](CCCCN)C(=O)N[C@@H](CCCCN)C(=O)N[C@@H](Cc1ccc(O)cc1)C(=O)NCC(N)=O)[C@@H](C)CC)[C@@H](C)CC)[C@@H](C)CC)[C@@H](C)CC)[C@@H](C)CC)[C@@H](C)CC [KNIRRIIRKIIHIIKKYG]
- MIC [1]: ≥ 100 µM
- MIC [2]: 6.25 µM (≈ 14.4 µg/mL)
- MIC [3]: 0.93 µM (≈ 2.14 µg/mL)

Compound: CC[C@H](C)[C@H](NC(=O)[C@H](Cc1ccccc1)NC(=O)[C@H](Cc1cnc[nH]1)NC(=O)[C@H](CCCCN)NC(=O)[C@@H](NC(=O)[C@@H](N)Cc1ccccc1)[C@@H](C)CC)C(=O)N[C@@H](Cc1cnc[nH]1)C(=O)N[C@@H](CCCN=C(N)N)C(=O)N[C@@H](Cc1ccccc1)C(N)=O [FIKHFIHRF]
- MIC [15]: ≥ 100 µM
- MIC [16]: ≥ 402 µM
- MIC [17]: ≥ 100 µM
- MIC [18]: ≥ 402 µM
- MIC [19]: ≥ 402 µM
- MIC [11]: > 402 µM
- MIC [20]: ≥ 100 µM
- MIC [21]: ≥ 402 µM
- MIC [22]: ≥ 402 µM

Compound: CC[C@H](C)[C@H](NC(=O)[C@H](CCCCN)NC(=O)[C@H](CCCCN)NC(=O)[C@H](CC(C)C)NC(=O)[C@H](Cc1ccc(O)cc1)NC(=O)[C@H](CC(N)=O)NC(=O)[C@H](Cc1ccc(O)cc1)NC(=O)[C@@H](NC(=O)[C@@H](NC(=O)[C@H](CCCCN)NC(=O)[C@H](C)NC(=O)[C@H](Cc1ccc(O)cc1)NC(=O)[C@H](CCCCN)NC(=O)[C@H](C)NC(=O)CN)[C@@H](C)CC)[C@@H](C)CC)C(=O)N[C@@H](C)C(=O)N[C@@H](CC(N)=O)C(=O)N[C@@H](C)C(=O)N[C@@H](CC(C)C)C(=O)N[C@@H](Cc1c[nH]c2ccccc12)C(=O)O [GAKYAKIIYNYLKKIANALW]
- MIC [23]: 27.3 µM (≈ 64 µg/mL)
- MIC [24]: 6.83 µM (≈ 16 µg/mL)
- MIC [25]: 3.42 µM (≈ 8 µg/mL)
- MIC [26]: 27.3 µM (≈ 64 µg/mL)
- MIC [27]: 6.83 µM (≈ 16 µg/mL)
- MIC [28]: 6.83 µM (≈ 16 µg/mL)
- MIC [29]: 6.83 µM (≈ 16 µg/mL)
- MIC [30]: 27.3 µM (≈ 64 µg/mL)
- MIC [31]: 6.83 µM (≈ 16 µg/mL)
- MIC [32]: 6.83 µM (≈ 16 µg/mL)
- MIC [33]: ≥ 54.7 µM
- MIC [34]: 13.7 µM (≈ 32 µg/mL)
- MIC [35]: ≥ 54.7 µM
- MIC [36]: 13.7 µM (≈ 32 µg/mL)
- MIC [37]: 13.7 µM (≈ 32 µg/mL)
- MIC [38]: 6.83 µM (≈ 16 µg/mL)
- MIC [39]: 6.83 µM (≈ 16 µg/mL)
- MIC [40]: ≥ 54.7 µM
- MIC [41]: 1.71 µM (≈ 4 µg/mL)

Compound: CC(=O)N[C@@H](CCCCN)C(=O)N[C@@H](CCCCN)C(=O)N[C@@H](Cc1c[nH]c2ccccc12)C(=O)N[C@@H](CCCCN)C(=O)N[C@@H](CCCCN)C(=O)N[C@@H](Cc1c[nH]c2ccccc12)C(=O)N[C@@H](CCCCN)C(=O)N[C@@H](CCCCN)C(=O)N[C@@H](Cc1c[nH]c2ccccc12)C(=O)N[C@@H](CCCCN)C(=O)N[C@@H](CCCCN)C(N)=O [KKWKKWKKWKK]
- MIC [1]: ≥ 100 µM
- MIC [2]: ≥ 100 µM
- MIC [3]: ≥ 50 µM

The next lines start with results.

- MIC [5]: 9.48 µM (≈ 13.3 µg/mL)
- MIC [6]: 28.5 µM (≈ 40 µg/mL)
- MIC [7]: 14.3 µM (≈ 20 µg/mL)
- MIC [8]: 3.56 µM (≈ 5 µg/mL)
- MIC [9]: 14.3 µM (≈ 20 µg/mL)
- MIC [10]: 14.3 µM (≈ 20 µg/mL)
- MIC [11]: > 14.3 µM
- MIC [14]: 14.3 µM (≈ 20 µg/mL)
Compound: CC[C@H](C)[C@H](NC(=O)[C@H](Cc1cnc[nH]1)NC(=O)[C@@H](NC(=O)[C@@H](NC(=O)[C@H](CCCCN)NC(=O)[C@H](CCCN=C(N)N)NC(=O)[C@@H](NC(=O)[C@@H](NC(=O)[C@@H](N)CCCN=C(N)N)[C@@H](C)CC)[C@@H](C)CC)[C@@H](C)CC)[C@@H](C)CC)C(=O)N[C@H](C(=O)N[C@@H](CCCCN)C(N)=O)[C@@H](C)CC [RIIRKIIHIIK]
- MIC [4]: 14.3 µM (≈ 20 µg/mL)
- MIC [12]: 7.13 µM (≈ 9.99 µg/mL)
- MIC [13]: 7.13 µM (≈ 9.99 µg/mL)

- MIC [5]: 9.18 µM (≈ 11.7 µg/mL)
- MIC [6]: 31.4 µM (≈ 40 µg/mL)
- MIC [7]: 15.7 µM (≈ 20 µg/mL)
- MIC [8]: 7.85 µM (≈ 9.99 µg/mL)
- MIC [9]: 15.7 µM (≈ 20 µg/mL)
- MIC [10]: 15.7 µM (≈ 20 µg/mL)
- MIC [11]: > 15.7 µM
- MIC [14]: 15.7 µM (≈ 20 µg/mL)
Compound: CC[C@H](C)[C@H](NC(=O)[C@@H](NC(=O)[C@H](Cc1cnc[nH]1)NC(=O)[C@@H](NC(=O)[C@@H](NC(=O)[C@H](CCCCN)NC(=O)[C@H](CCCN=C(N)N)NC(=O)[C@@H](NC(=O)[C@@H](NC(=O)[C@@H](N)CCCN=C(N)N)[C@@H](C)CC)[C@@H](C)CC)[C@@H](C)CC)[C@@H](C)CC)[C@@H](C)CC)C(N)=O [RIIRKIIHII]
- MIC [4]: 15.7 µM (≈ 20 µg/mL)
- MIC [12]: 10.4 µM (≈ 13.3 µg/mL)
- MIC [13]: 15.7 µM (≈ 20 µg/mL)

- MIC [23]: 26.4 µM (≈ 64 µg/mL)
- MIC [24]: ≥ 52.8 µM
- MIC [25]: ≥ 52.8 µM
- MIC [26]: ≥ 106 µM
- MIC [29]: ≥ 52.8 µM
- MIC [30]: 13.2 µM (≈ 32 µg/mL)
- MIC [31]: 26.4 µM (≈ 64 µg/mL)
- MIC [32]: 13.2 µM (≈ 32 µg/mL)
- MIC [33]: ≥ 106 µM
- MIC [34]: ≥ 106 µM
- MIC [35]: ≥ 52.8 µM
- MIC [36]: ≥ 52.8 µM
- MIC [37]: ≥ 52.8 µM
- MIC [38]: 13.2 µM (≈ 32 µg/mL)
- MIC [39]: 26.4 µM (≈ 64 µg/mL)
- MIC [40]: ≥ 52.8 µM
- MIC [41]: 3.3 µM (≈ 8 µg/mL)
Compound: CC[C@H](C)[C@H](NC(=O)[C@H](Cc1ccccc1)NC(=O)[C@H](CCCCN)NC(=O)[C@H](CC(N)=O)NC(=O)[C@@H](NC(=O)[C@H](Cc1ccc(O)cc1)NC(=O)[C@@H](NC(=O)[C@H](Cc1ccc(O)cc1)NC(=O)[C@H](Cc1ccccc1)NC(=O)[C@H](CCCCN)NC(=O)[C@H](CCCCN)NC(=O)[C@H](C)NC(=O)[C@H](CC(C)C)NC(=O)[C@H](CC(N)=O)NC(=O)[C@H](C)NC(=O)CN)[C@@H](C)O)[C@@H](C)CC)C(=O)N[C@@H](CC(N)=O)C(=O)N[C@@H](Cc1ccc(O)cc1)C(=O)N[C@@H](C)C(=O)N[C@@H](Cc1c[nH]c2ccccc12)C(=O)O [GANLAKKFYTYINKFINYAW]
- MIC [27]: ≥ 52.8 µM
- MIC [28]: 6.6 µM (≈ 16 µg/mL)

- MIC [15]: ≥ 340 µM
- MIC [16]: ≥ 340 µM
- MIC [17]: ≥ 340 µM
- MIC [18]: ≥ 340 µM
- MIC [19]: ≥ 340 µM
- MIC [11]: > 340 µM
- MIC [20]: ≥ 340 µM
- MIC [21]: ≥ 340 µM
- MIC [22]: ≥ 340 µM
Compound: NC(=O)CC[C@H](NC(=O)[C@H](Cc1c[nH]c2ccccc12)NC(=O)[C@H](Cc1c[nH]c2ccccc12)NC(=O)[C@H](CC(N)=O)NC(=O)[C@H](Cc1ccc(O)cc1)NC(=O)[C@H](Cc1c[nH]c2ccccc12)NC(=O)[C@@H](N)Cc1c[nH]c2ccccc12)C(=O)N[C@@H](CC(=O)O)C(=O)N[C@@H](Cc1c[nH]c2ccccc12)C(N)=O [WWYNWWQDW]
